The values below come from patent US20260070913A1, “7-AMINO-3,4-DIHYDROPYRIMIDOPYRIMIDIN-2-ONE DERIVATIVE HAVING INHIBITORY ACTIVITY FOR PROTEIN KINASES AND THERAPEUTIC PHARMACEUTICAL COMPOSITION COMPRISING SAME” (KOREA INSTITUTE OF SCIENCE AND TECHNOLOGY, priority 2020, published 2026).

Assay [1] deals with OCI-AML3 (N-Ras Q61L). Put plainly: Proliferation inhibitory activity, OCI-AML3 cell line. It counts as cell-based. The settings on record: Homo sapiens, OCI-AML-3. As to the method: (§1) The inhibitory activities of the compounds of the present disclosure against the proliferation of the mt-NRAS (G12D) Ba/F3 and OCI-AML3 (mt-NRAS) cell lines were measured, and the […] values thereof were calculated.
Referring to the results in Table 2, it can be seen that the compound of the present disclosure has inhibitory activity against the proliferation of the human acute myeloid leukemia cell line (OCI-AML3) having the NRAS mutant gene, and the effect thereof is remarkable. Therefore, it can be seen that the compound of the present disclosure is particularly effective as a therapeutic agent for acute myeloid leukemia (AML).

The target in assay [2] is T1, GCK (Homo sapiens, UniProt Q12851).
T1 sequence (Q12851 1-820): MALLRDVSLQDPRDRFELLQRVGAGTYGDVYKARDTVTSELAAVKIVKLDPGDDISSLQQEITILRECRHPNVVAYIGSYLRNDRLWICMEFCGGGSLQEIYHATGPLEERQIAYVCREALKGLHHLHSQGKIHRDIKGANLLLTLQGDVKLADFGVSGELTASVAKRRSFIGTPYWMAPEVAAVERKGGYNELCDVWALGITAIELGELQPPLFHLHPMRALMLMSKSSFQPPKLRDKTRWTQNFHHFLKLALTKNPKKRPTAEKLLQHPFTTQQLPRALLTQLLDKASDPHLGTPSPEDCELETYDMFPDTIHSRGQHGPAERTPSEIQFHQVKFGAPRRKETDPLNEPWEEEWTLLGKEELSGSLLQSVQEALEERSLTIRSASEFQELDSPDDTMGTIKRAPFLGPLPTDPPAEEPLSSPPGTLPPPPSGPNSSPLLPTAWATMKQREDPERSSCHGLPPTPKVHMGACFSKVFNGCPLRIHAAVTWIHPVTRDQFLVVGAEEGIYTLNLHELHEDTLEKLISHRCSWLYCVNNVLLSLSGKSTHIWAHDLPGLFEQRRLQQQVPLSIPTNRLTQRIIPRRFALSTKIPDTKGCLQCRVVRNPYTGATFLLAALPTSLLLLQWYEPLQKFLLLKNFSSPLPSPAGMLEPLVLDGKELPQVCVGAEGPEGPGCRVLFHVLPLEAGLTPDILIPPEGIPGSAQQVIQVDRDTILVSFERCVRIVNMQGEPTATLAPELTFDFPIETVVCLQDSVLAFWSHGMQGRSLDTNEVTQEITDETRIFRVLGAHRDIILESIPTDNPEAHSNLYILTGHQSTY
Put plainly: Inhibitory activity against GCK kinase. It counts as biochemical. Here is the method: (§2) The inhibitory activities of the compounds of the present disclosure against two kinases, GCK and ACK1, were measured, and the IC50 values thereof were calculated.

In assay [3] the test system is Ba/F3 (N-Ras G12D). Description: Proliferation inhibitory activity, mt-NRAS (G12D) Ba/F3 cell line. The format is cell-based. The settings on record: Mus musculus, BaF3. Here is the method:
as §1

Assay [4] deals with ACK1 (Homo sapiens, UniProt Q07912). Put plainly: Inhibitory activity against ACK1 kinase. The format is biochemical. As to the method: as §2
Sequence of ACK1 (Q07912 whole entry): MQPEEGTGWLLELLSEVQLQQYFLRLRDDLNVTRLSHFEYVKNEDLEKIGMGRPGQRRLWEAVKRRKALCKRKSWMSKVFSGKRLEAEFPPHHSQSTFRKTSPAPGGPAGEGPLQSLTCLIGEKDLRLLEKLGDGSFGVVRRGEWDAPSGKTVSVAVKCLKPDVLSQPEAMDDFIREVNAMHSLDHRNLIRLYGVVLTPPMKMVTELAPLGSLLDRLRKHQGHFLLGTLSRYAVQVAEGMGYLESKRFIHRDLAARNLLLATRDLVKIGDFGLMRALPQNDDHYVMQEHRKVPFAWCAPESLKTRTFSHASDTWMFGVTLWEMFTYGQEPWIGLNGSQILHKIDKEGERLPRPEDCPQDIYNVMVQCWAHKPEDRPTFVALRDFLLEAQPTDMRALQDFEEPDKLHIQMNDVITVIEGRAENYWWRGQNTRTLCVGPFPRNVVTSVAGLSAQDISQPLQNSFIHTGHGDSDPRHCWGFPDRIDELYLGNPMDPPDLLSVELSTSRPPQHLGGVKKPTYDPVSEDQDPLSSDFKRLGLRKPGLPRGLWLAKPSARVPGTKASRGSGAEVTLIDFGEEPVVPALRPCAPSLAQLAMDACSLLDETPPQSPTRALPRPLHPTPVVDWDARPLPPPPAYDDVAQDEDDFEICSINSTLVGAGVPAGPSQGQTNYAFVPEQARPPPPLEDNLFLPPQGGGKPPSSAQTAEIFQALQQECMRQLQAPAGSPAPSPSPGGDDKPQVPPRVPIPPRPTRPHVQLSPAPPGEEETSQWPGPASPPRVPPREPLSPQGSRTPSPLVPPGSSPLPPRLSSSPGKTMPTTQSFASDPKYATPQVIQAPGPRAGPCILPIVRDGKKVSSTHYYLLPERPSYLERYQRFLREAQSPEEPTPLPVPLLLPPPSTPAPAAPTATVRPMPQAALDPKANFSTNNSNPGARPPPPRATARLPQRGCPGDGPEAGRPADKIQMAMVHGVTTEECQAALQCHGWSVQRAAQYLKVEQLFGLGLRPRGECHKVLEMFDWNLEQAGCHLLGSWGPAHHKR

As to `Cc1ccc(Nc2ncc3c(n2)N(C)C(=O)N(c2cc(-c4ncc(-c5cccc(C(F)(F)F)c5)[nH]4)ccc2C)C3)cn1` [Compound No. 13, 1-methyl-3-(2-methyl-5-(5-(3-(trifluoromethyl)phenyl)-1H-imidazol-2-yl)phenyl)-7-((6-methylpyridin-3-yl)amino)-3,4-dihydropyrimido[4,5-d]pyrimidin-2(1H)-one], the GI50 (in general, the concentration giving 50% growth inhibition) in assay [1] was less than 0.5 µM; in assay [3] it was 3 to 5 µM. For the same compound, the IC50 (usually the concentration that gives 50% inhibition) in assay [2] is more than 10 µM; in assay [4] it was 1 to 10 µM.
The matching figures for `CCN1CCC(n2cc(Nc3ncc4c(n3)N(C)C(=O)N(c3cc(-c5ncc(-c6ccccc6OC(F)(F)F)[nH]5)ccc3C)C4)cn2)CC1` [Compound No. 10, 7-((1-(1-ethylpiperidin-4-yl)-1H-pyrazol-4-yl)amino)-1-methyl-3-(2-methyl-5-(5-(2-(trifluoromethoxy)phenyl)-1H-imidazol-2-yl)phenyl)-3,4-dihydropyrimido[4,5-d]pyrimidin-2(1H)-one]: less than 0.5 µM, less than 0.5 µM, 0.1 to 1 µM and less than 0.1 µM.
